Experiments:
[1] = test system: MDA-MB-231; assay: normalised viability (% of control), CellTiter-Blue; higher = more viable cells (100 = DMSO, 0 = benzethonium chloride kill control); conditions: incubation time: 72 h
Protocol: (§1)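 DSRT, CellTiter-Blue viability, 72 h incubation. Signal is normalised to DMSO and benzethonium chloride controls. Value is the normalised response at dose 1.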

[2] = test system: Hs578T; assay: as above; conditions: incubation time: 72 h
Protocol: as §1

[3] = test system: CAL-148; assay: as above; conditions: incubation time: 72 h
Protocol: as §1

[4] = test system: HDQ-P1; assay: as above; conditions: incubation time: 72 h
Protocol: as §1

[5] = test system: CAL-85-1; assay: as above; conditions: incubation time: 72 h
Protocol: as §1

[6] = test system: MDA-MB-453; assay: as above; conditions: incubation time: 72 h
Protocol: as §1

[7] = test system: BT-549; assay: as above; conditions: incubation time: 72 h
Protocol: as §1

[8] = test system: HCC1599; assay: as above; conditions: incubation time: 72 h
Protocol: as §1

[9] = test system: CAL-120; assay: as above; conditions: incubation time: 72 h
Protocol: as §1

[10] = test system: DU-4475; assay: as above; conditions: incubation time: 72 h
Protocol: as §1

[11] = test system: MDA-MB-436; assay: as above; conditions: incubation time: 72 h
Protocol: as §1

[12] = test system: HCC1143; assay: as above; conditions: incubation time: 72 h
Protocol: as §1

[13] = test system: CAL-51; assay: as above; conditions: incubation time: 72 h
Protocol: as §1

[14] = test system: BT-474; assay: as above; conditions: incubation time: 72 h
Protocol: as §1

[15] = test system: SK-BR-3; assay: as above; conditions: incubation time: 72 h
Protocol: as §1

[16] = test system: HCC1937; assay: as above; conditions: incubation time: 72 h
Protocol: as §1

[17] = test system: MDA-MB-468; assay: as above; conditions: incubation time: 72 h
Protocol: as §1

[18] = test system: MFM-223; assay: as above; conditions: incubation time: 72 h
Protocol: as §1

[19] = test system: MDA-MB-231; assay: normalised viability (% of control), CellTiter-Blue; higher = more viable cells (about 100 = DMSO control); conditions: 100 nM; incubation time: 72 h
Protocol: (§2)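 DSRT, CellTiter-Blue viability, 72 h incubation. Signal is normalised to DMSO and benzethonium chloride controls. Value is the normalised response at dose 3.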

[20] = test system: Hs578T; assay: as above; conditions: 100 nM; incubation time: 72 h
Protocol: as §2

[21] = test system: CAL-148; assay: as above; conditions: 10 nM; incubation time: 72 h
Protocol: as §2

[22] = test system: HDQ-P1; assay: as above; conditions: 10 nM; incubation time: 72 h
Protocol: as §2

[23] = test system: CAL-85-1; assay: as above; conditions: 10 nM; incubation time: 72 h
Protocol: as §2

[24] = test system: MDA-MB-453; assay: as above; conditions: 10 nM; incubation time: 72 h
Protocol: as §2

[25] = test system: BT-549; assay: as above; conditions: 100 nM; incubation time: 72 h
Protocol: as §2

[26] = test system: HCC1599; assay: as above; conditions: 100 nM; incubation time: 72 h
Protocol: as §2

[27] = test system: CAL-120; assay: as above; conditions: 100 nM; incubation time: 72 h
Protocol: as §2

[28] = test system: DU-4475; assay: as above; conditions: 10 nM; incubation time: 72 h
Protocol: as §2

[29] = test system: MDA-MB-436; assay: as above; conditions: 100 nM; incubation time: 72 h
Protocol: as §2

[30] = test system: HCC1143; assay: as above; conditions: 100 nM; incubation time: 72 h
Protocol: as §2

[31] = test system: CAL-51; assay: as above; conditions: 10 nM; incubation time: 72 h
Protocol: as §2

[32] = test system: BT-474; assay: as above; conditions: 100 nM; incubation time: 72 h
Protocol: as §2

[33] = test system: SK-BR-3; assay: as above; conditions: 100 nM; incubation time: 72 h
Protocol: as §2

[34] = test system: HCC1937; assay: as above; conditions: 100 nM; incubation time: 72 h
Protocol: as §2

[35] = test system: MDA-MB-468; assay: as above; conditions: 100 nM; incubation time: 72 h
Protocol: as §2

[36] = test system: MFM-223; assay: as above; conditions: 100 nM; incubation time: 72 h
Protocol: as §2

[37] = test system: MDA-MB-231; assay: normalised viability (% of control), CellTiter-Blue; higher = more viable cells (about 100 = DMSO control); conditions: incubation time: 72 h
Outline: (§3)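 Seeded at 20 µl suspension per well onto compound-loaded 384-well plates, breast cancer cell lines were incubated 72 h. CellTiter-Blue fluorescence at 560/590 nm was then read, with each plate normalised to vehicle (100) and a positive kill control (0). Normalised viability is reported at a single listed concentration of the series.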

[38] = test system: Hs578T; assay: as above; conditions: incubation time: 72 h
Outline: as §3

[39] = test system: CAL-148; assay: as above; conditions: incubation time: 72 h
Outline: as §3

[40] = test system: HDQ-P1; assay: as above; conditions: incubation time: 72 h
Outline: as §3

[41] = test system: CAL-85-1; assay: as above; conditions: incubation time: 72 h
Outline: as §3

[42] = test system: MDA-MB-453; assay: as above; conditions: incubation time: 72 h
Outline: as §3

[43] = test system: BT-549; assay: as above; conditions: incubation time: 72 h
Outline: as §3

[44] = test system: HCC1599; assay: as above; conditions: incubation time: 72 h
Outline: as §3

[45] = test system: CAL-120; assay: as above; conditions: incubation time: 72 h
Outline: as §3

[46] = test system: DU-4475; assay: as above; conditions: incubation time: 72 h
Outline: as §3

[47] = test system: MDA-MB-436; assay: as above; conditions: incubation time: 72 h
Outline: as §3

[48] = test system: HCC1143; assay: as above; conditions: incubation time: 72 h
Outline: as §3

[49] = test system: CAL-51; assay: as above; conditions: incubation time: 72 h
Outline: as §3

[50] = test system: BT-474; assay: as above; conditions: incubation time: 72 h
Outline: as §3

[51] = test system: SK-BR-3; assay: as above; conditions: incubation time: 72 h
Outline: as §3

[52] = test system: HCC1937; assay: as above; conditions: incubation time: 72 h
Outline: as §3

[53] = test system: MDA-MB-468; assay: as above; conditions: incubation time: 72 h
Outline: as §3

[54] = test system: MFM-223; assay: as above; conditions: incubation time: 72 h
Outline: as §3

Compound: Cc1c(C(=O)Nc2ccc(N3C[C@@H](C)O[C@@H](C)C3)nc2)cccc1-c1ccc(OC(F)(F)F)cc1 [NVP-LDE225] (1 nM)
- normalised viability [1]: 98%
- normalised viability [2]: 111%
- normalised viability [3]: 92.9%
- normalised viability [4]: 70.9%
- normalised viability [5]: 99.5%
- normalised viability [6]: 108%
- normalised viability [7]: 87.2%
- normalised viability [8]: 85.8%
- normalised viability [9]: 93.1%
- normalised viability [10]: 102%
- normalised viability [11]: 79.5%
- normalised viability [12]: 105%
- normalised viability [13]: 103%
- normalised viability [14]: 109%
- normalised viability [15]: 91.5%
- normalised viability [16]: 96.4%
- normalised viability [17]: 129%
- normalised viability [18]: 96.4%

Compound: C[C@@H](CN1CC(=O)NC(=O)C1)N1CC(=O)NC(=O)C1 [Dexrazoxane]
- normalised viability [19]: 96.6%
- normalised viability [20]: 89%
- normalised viability [21]: 85%
- normalised viability [22]: 91%
- normalised viability [23]: 110%
- normalised viability [24]: 94.6%
- normalised viability [25]: 78.5%
- normalised viability [26]: 124%
- normalised viability [27]: 91.8%
- normalised viability [28]: 110%
- normalised viability [29]: 101%
- normalised viability [30]: 88.6%
- normalised viability [31]: 95.6%
- normalised viability [32]: 107%
- normalised viability [33]: 61%
- normalised viability [34]: 103%
- normalised viability [35]: 109%
- normalised viability [36]: 93.3%
- normalised viability ([37]; 10 nM): 95%
- normalised viability ([37]; 1000 nM): 96.6%
- normalised viability ([37]; 10000 nM): 107%
- normalised viability ([38]; 10 nM): 87.7%
- normalised viability ([38]; 1000 nM): 88.8%
- normalised viability ([38]; 10000 nM): 92.1%
- normalised viability ([39]; 3 nM): 84.4%
- normalised viability ([39]; 30 nM): 92.6%
- normalised viability ([39]; 100 nM): 91.5%
- normalised viability ([40]; 3 nM): 108%
- normalised viability ([40]; 30 nM): 107%
- normalised viability ([40]; 100 nM): 44.3%
- normalised viability ([41]; 3 nM): 98.4%
- normalised viability ([41]; 30 nM): 93.7%
- normalised viability ([41]; 100 nM): 96.7%
- normalised viability ([42]; 3 nM): 104%
- normalised viability ([42]; 30 nM): 103%
- normalised viability ([42]; 100 nM): 101%
- normalised viability ([43]; 10 nM): 87.2%
- normalised viability ([43]; 1000 nM): 79.2%
- normalised viability ([43]; 10000 nM): 76.8%
- normalised viability ([44]; 10 nM): 123%
- normalised viability ([44]; 1000 nM): 93.3%
- normalised viability ([44]; 10000 nM): 115%
- normalised viability ([45]; 10 nM): 90.1%
- normalised viability ([45]; 1000 nM): 100%
- normalised viability ([45]; 10000 nM): 100%
- normalised viability ([46]; 3 nM): 103%
- normalised viability ([46]; 30 nM): 97.4%
- normalised viability ([46]; 100 nM): 104%
- normalised viability ([47]; 10 nM): 91.8%
- normalised viability ([47]; 1000 nM): 95.8%
- normalised viability ([47]; 10000 nM): 95.6%
- normalised viability ([48]; 10 nM): 88%
- normalised viability ([48]; 1000 nM): 94.5%
- normalised viability ([48]; 10000 nM): 99.6%
- normalised viability ([49]; 3 nM): 93.9%
- normalised viability ([49]; 30 nM): 96.1%
- normalised viability ([49]; 100 nM): 92.8%
- normalised viability ([50]; 10 nM): 100%
- normalised viability ([50]; 1000 nM): 101%
- normalised viability ([50]; 10000 nM): 114%
- normalised viability ([51]; 10 nM): 93.8%
- normalised viability ([51]; 1000 nM): 105%
- normalised viability ([51]; 10000 nM): 103%
- normalised viability ([52]; 10 nM): 99.1%
- normalised viability ([52]; 1000 nM): 82%
- normalised viability ([52]; 10000 nM): 92.3%
- normalised viability ([53]; 10 nM): 101%
- normalised viability ([53]; 1000 nM): 97.4%
- normalised viability ([53]; 10000 nM): 100%
- normalised viability ([54]; 10 nM): 95.2%
- normalised viability ([54]; 1000 nM): 91.2%
- normalised viability ([54]; 10000 nM): 93%

Compound: N[C@@H](Cc1ccc(N(CCCl)CCCl)cc1)C(=O)O [Melphalan] (0.099 nM)
- normalised viability [1]: 95.1%
- normalised viability [2]: 93.8%
- normalised viability [3]: 112%
- normalised viability [4]: 107%
- normalised viability [5]: 85.7%
- normalised viability [6]: 97.8%
- normalised viability [7]: 107%
- normalised viability [8]: 96.1%
- normalised viability [9]: 82.9%
- normalised viability [10]: 99.8%
- normalised viability [11]: 89.8%
- normalised viability [12]: 84.7%
- normalised viability [13]: 100%
- normalised viability [14]: 85.2%
- normalised viability [15]: 94%
- normalised viability [16]: 87.2%
- normalised viability [17]: 102%
- normalised viability [18]: 94.3%

Source: the supplement of paper PMC4862054
